The source made the active and inactive calls. The rule behind the calls is not given here. Numbered stars: 1 amine (or outer) side, 2 acyl side, 3 side chain; on linkers, the order of the positions; unused ones are H or OH. Bridge positions count the residues as written; N and C are the ends. Square brackets hold non-standard residues; d marks the D form. Peptide text beside a SMILES is read from it. * marks the point of attachment. hTyr(3S-OH,4S-OH,3'-OSO3H) = N[C@H](C(=O)O)[C@H](O)[C@@H](O)c1ccc(O)c(OS(=O)(=O)O)c1; Orn(4R-OH,5R-OH) = O=C([C@H](C[C@@H](O)[C@@H](O)N[*:3])N[*:1])[*:2]; Pro(3S-OH,4S-Me) = C[C@H]1CN[C@H](C(=O)O)[C@H]1O; X1 = CCCCCOc1ccc(-c2cc(-c3ccc(C(=O)*)cc3)no2)cc1; Gln(3R-OH) = NC(=O)C[C@@H](O)[C@H](N)C(=O)O; Hyp = O=C(O)[C@@H]1C[C@@H](O)CN1
Columns and labels:
Aspergillus flavus [1] = assay: Antifungal activity against nongerminated Aspergillus flavus assessed as absence of visual fungal growth at 64 ug/mL; type: functional, organism-based
Aspergillus flavus [2] = assay: Antifungal activity against germinated Aspergillus flavus assessed as lowest drug concentration that produced short, stubby and highly branched hyphae after 48 hrs by microscopic analysis; type: functional; details: read-out: MEC
Aspergillus fumigatus [3] = assay: Induction of maximal metabolic inhibition in germinated Aspergillus fumigatus assessed as minimal metabolic activity Ymin after 2 hrs by XTT assay; type: functional; design: scale not given: the % may be the effect or the level left
Aspergillus fumigatus [4] = assay: Antifungal activity against germinated Aspergillus fumigatus assessed as absence of visual fungal growth at 64 ug/mL; type: functional, organism-based
Aspergillus flavus [5] = assay: Ratio of log2 of MEC for germinated Aspergillus flavus to log2 of MEC for nongerminated Aspergillus flavus; type: functional
Aspergillus terreus [6] = assay: Effect on Aspergillus terreus metabolic activity assessed number of twofold drug dilutions required for germinated fungal metabolic activity to nongerminated fungal metabolic activity; type: functional
Aspergillus flavus [7] = assay: Antifungal activity against germinated Aspergillus flavus assessed as absence of visual fungal growth at 128 ug/mL; type: functional, organism-based
Aspergillus fumigatus [8] = assay: Effect on nongerminated Aspergillus fumigatus metabolic activity assessed as drug concentration at which fungal metabolic activity occurs after 2 hrs by XTT assay; type: functional
Aspergillus terreus [9] = assay: Ratio of log2 of MEC for germinated Aspergillus terreus to log2 of MEC for nongerminated Aspergillus terreus; type: functional
Aspergillus terreus [10] = assay: Antifungal activity against germinated Aspergillus terreus assessed as lowest drug concentration that produced short, stubby and highly branched hyphae after 48 hrs by microscopic analysis; type: functional; details: read-out: MEC
Aspergillus terreus [11] = assay: Antifungal activity against nongerminated Aspergillus terreus assessed as lowest drug concentration that produced short, stubby and highly branched hyphae after 48 hrs by microscopic analysis; type: functional; details: read-out: MEC
Aspergillus flavus [12] = assay: Antifungal activity against nongerminated Aspergillus flavus assessed as lowest drug concentration that produced short, stubby and highly branched hyphae after 48 hrs by microscopic analysis; type: functional; details: read-out: MEC
Aspergillus fumigatus [13] = assay: Effect on Aspergillus fumigatus metabolic activity assessed number of twofold drug dilutions required for germinated fungal metabolic activity to nongerminated fungal metabolic activity; type: functional
Aspergillus flavus [14] = assay: Effect on Aspergillus flavus metabolic activity assessed number of twofold drug dilutions required for germinated fungal metabolic activity to nongerminated fungal metabolic activity; type: functional
Aspergillus flavus [15] = assay: Induction of maximal metabolic inhibition in germinated Aspergillus flavus assessed as minimal metabolic activity Ymin after 2 hrs by XTT assay; type: functional; design: scale not given: the % may be the effect or the level left
Aspergillus terreus [16] = assay: Induction of maximal metabolic inhibition in nongerminated Aspergillus terreus assessed as minimal metabolic activity Ymin after 2 hrs by XTT assay; type: functional; design: scale not given: the % may be the effect or the level left
Aspergillus terreus [17] = assay: Effect on germinated Aspergillus terreus metabolic activity assessed as drug concentration at which fungal metabolic activity occurs after 2 hrs by XTT assay; type: functional
Aspergillus fumigatus [18] = assay: Effect on germinated Aspergillus fumigatus metabolic activity assessed as drug concentration at which fungal metabolic activity occurs after 2 hrs by XTT assay; type: functional
Aspergillus terreus [19] = assay: Antifungal activity against nongerminated Aspergillus terreus assessed as absence of visual fungal growth at 128 ug/mL; type: functional, organism-based
Aspergillus flavus [20] = assay: Induction of maximal metabolic inhibition in nongerminated Aspergillus flavus assessed as minimal metabolic activity Ymin after 2 hrs by XTT assay; type: functional; design: scale not given: the % may be the effect or the level left
Aspergillus flavus [21] = assay: Antifungal activity against germinated Aspergillus flavus assessed as absence of visual fungal growth at 64 ug/mL; type: functional, organism-based
Aspergillus terreus [22] = assay: Antifungal activity against nongerminated Aspergillus terreus assessed as absence of visual fungal growth at 64 ug/mL; type: functional, organism-based
Aspergillus terreus [23] = assay: Effect on nongerminated Aspergillus terreus metabolic activity assessed as drug concentration at which fungal metabolic activity occurs after 2 hrs by XTT assay; type: functional
Aspergillus fumigatus [24] = assay: Ratio of log2 of MEC for germinated Aspergillus fumigatus to log2 of MEC for nongerminated Aspergillus fumigatus; type: functional
Aspergillus fumigatus [25] = assay: Antifungal activity against nongerminated Aspergillus fumigatus assessed as short, stubby and highly branched hyphae after 48 hrs by microscopy analysis; type: functional, organism-based
Aspergillus terreus [26] = assay: Induction of maximal metabolic inhibition in germinated Aspergillus terreus assessed as minimal metabolic activity Ymin after 2 hrs by XTT assay; type: functional; design: scale not given: the % may be the effect or the level left
Aspergillus fumigatus [27] = assay: Antifungal activity against germinated Aspergillus fumigatus assessed as lowest drug concentration that produced short, stubby and highly branched hyphae after 48 hrs by microscopic analysis; type: functional; details: read-out: MEC
Aspergillus terreus [28] = assay: Antifungal activity against germinated Aspergillus terreus assessed as absence of visual fungal growth at 128 ug/mL; type: functional, organism-based
Aspergillus flavus [29] = assay: Antifungal activity against nongerminated Aspergillus flavus assessed as absence of visual fungal growth at 128 ug/mL; type: functional, organism-based
Aspergillus flavus [30] = assay: Effect on germinated Aspergillus flavus metabolic activity assessed as drug concentration at which fungal metabolic activity occurs after 2 hrs by XTT assay; type: functional
Aspergillus terreus [31] = assay: Antifungal activity against germinated Aspergillus terreus assessed as absence of visual fungal growth at 64 ug/mL; type: functional, organism-based
Aspergillus fumigatus [32] = assay: Antifungal activity against nongerminated Aspergillus fumigatus assessed as absence of visual fungal growth at 128 ug/mL; type: functional, organism-based
Aspergillus fumigatus [33] = assay: Antifungal activity against nongerminated Aspergillus fumigatus assessed as absence of visual fungal growth at 64 ug/mL; type: functional, organism-based
Aspergillus fumigatus [34] = assay: Induction of maximal metabolic inhibition in nongerminated Aspergillus fumigatus assessed as minimal metabolic activity Ymin after 2 hrs by XTT assay; type: functional; design: scale not given: the % may be the effect or the level left
Aspergillus fumigatus [35] = assay: Antifungal activity against germinated Aspergillus fumigatus assessed as absence of visual fungal growth at 128 ug/mL; type: functional, organism-based
Aspergillus fumigatus [36] = assay: Antifungal activity against nongerminated Aspergillus fumigatus assessed as lowest drug concentration that produced short, stubby and highly branched hyphae after 48 hrs by microscopic analysis; type: functional; details: read-out: MEC
Aspergillus flavus [37] = assay: Effect on nongerminated Aspergillus flavus metabolic activity assessed as drug concentration at which fungal metabolic activity occurs after 2 hrs by XTT assay; type: functional

For CCCCCOc1ccc(-c2cc(-c3ccc(C(=O)N[C@H]4C[C@@H](O)[C@@H](O)NC(=O)[C@@H]5[C@@H](O)[C@@H](C)CN5C(=O)[C@H]([C@H](O)CC(N)=O)NC(=O)[C@H]([C@H](O)[C@@H](O)c5ccc(O)c(OS(=O)(=O)O)c5)NC(=O)[C@@H]5C[C@@H](O)CN5C(=O)[C@H]([C@@H](C)O)NC4=O)cc3)no2)cc1 [MICAFUNGIN] (X1-[Orn(4R-OH,5R-OH)]T[Hyp][hTyr(3S-OH,4S-OH,3'-OSO3H)][Gln(3R-OH)][Pro(3S-OH,4S-Me)]; lactam 1-C), the Activity (Aspergillus flavus [1]) was “inactive”, the minimal effective concentration (Aspergillus flavus [2]) was 0.5 µg/mL and the Activity (Aspergillus fumigatus [3]) was 29%. For the same compound, the Activity (Aspergillus fumigatus [4]) was “inactive”, the Ratio (Aspergillus flavus [5]) was 2 and the Ratio (Aspergillus terreus [6]) was 2.04. For the same compound, the Activity (Aspergillus flavus [7]) was “inactive”, the EC5 (Aspergillus fumigatus [8]) was 0.04 µg/mL and the Ratio (Aspergillus terreus [9]) was 1. It also gave a minimal effective concentration (Aspergillus terreus [10]) of 0.25 µg/mL, a minimal effective concentration (Aspergillus terreus [11]) of 0.12 µg/mL and a minimal effective concentration (Aspergillus flavus [12]) of 0.12 µg/mL. It also gave a Ratio (Aspergillus fumigatus [13]) of 0.67, a Ratio (Aspergillus flavus [14]) of 1.57 and an Activity (Aspergillus flavus [15]) of 20%. It also gave an Activity (Aspergillus terreus [16]) of 29%, an EC5 (Aspergillus terreus [17]) of 0.14 µg/mL and an EC5 (Aspergillus fumigatus [18]) of 0.05 µg/mL. For the same compound, the Activity (Aspergillus terreus [19]) was “inactive”, the Activity (Aspergillus flavus [20]) was 17% and the Activity (Aspergillus flavus [21]) was “inactive”. The Activity (Aspergillus terreus [22]) was “inactive”, the EC5 (Aspergillus terreus [23]) was 0.07 µg/mL and the Ratio (Aspergillus fumigatus [24]) was 1. For the same compound, the Activity (Aspergillus fumigatus [25]) was “Active”, the Activity (Aspergillus terreus [26]) was 37% and the minimal effective concentration (Aspergillus fumigatus [27]) was 0.25 µg/mL. The Activity (Aspergillus terreus [28]) was “inactive”, the Activity (Aspergillus flavus [29]) was “inactive” and the EC5 (Aspergillus flavus [30]) was 0.14 µg/mL. The Activity (Aspergillus terreus [31]) was “inactive”, the Activity (Aspergillus fumigatus [32]) was “inactive” and the Activity (Aspergillus fumigatus [33]) was “inactive”. The Activity (Aspergillus fumigatus [34]) was 25%, the Activity (Aspergillus fumigatus [35]) was “inactive” and the minimal effective concentration (Aspergillus fumigatus [36]) was 0.06 µg/mL. The EC5 (Aspergillus flavus [37]) was 0.05 µg/mL.

— ChEMBL document CHEMBL1153552, “Comparative in vitro pharmacodynamics of caspofungin, micafungin, and anidulafungin against germinated and nongerminated Aspergillus conidia” (2008)
